The text below walks through data of patent US20230234943A1, “TREX1 INHIBITORS AND USES THEREOF” (Tempest Therapeutics, Inc., priority 2020, published 2023).

pIC50: −log10 of the molar value.

The experiment deals with T1, Human TREX1 enzyme (amino acids 1-242) (Homo sapiens, UniProt Q9NSU2).
T1 construct: Human TREX1 enzyme (amino acids 1-242)
T1 sequence (Q9NSU2 1-242): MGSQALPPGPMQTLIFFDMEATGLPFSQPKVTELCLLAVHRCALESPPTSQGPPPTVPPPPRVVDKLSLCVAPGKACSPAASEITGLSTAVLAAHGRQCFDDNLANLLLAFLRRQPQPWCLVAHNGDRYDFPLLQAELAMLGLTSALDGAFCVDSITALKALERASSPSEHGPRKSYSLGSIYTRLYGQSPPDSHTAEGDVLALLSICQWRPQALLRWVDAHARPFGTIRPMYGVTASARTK
In words: Human TREX1 enzymatic assay with dsDNA native oligonucleotide (Picogreen fluorescence). Type of experiment: biochemical. Particulars: 2 mM dithiothreitol in assay buffer; 50 nM dsDNA oligonucleotide; 30 min preincubation at 25° C.; read-out: TREX1/Human + DTT IC50 AVG. The protocol: Example A. Human TREX1 Enzymatic Assay with dsDNA Native Oligonucleotide
Human TREX1 enzyme (amino acids 1-242) was diluted in assay buffer (20 mM Tris pH 7.7, 5 mM MgCl2, 0.01% human serum albumin, 0.01% Brij™-35, 2 mM dithiothreitol) to a final concentration of 0.8 nM to 0.16 nM and added to a 96-well low-binding polypropylene plate. Test compounds were diluted in DMSO to 50× concentration (final DMSO concentration in reaction mixture of 2%) and added to the wells with a concentration ranging from 300 μM to 13 nM or 30 μM to 1.5 nM. The reaction mixtures were incubated for 30 minutes at 25° C. and a solution of annealed dsDNA oligonucleotide (5′-[…]-3′ and Comp: 5′-[…]-3′) was added to a final concentration of 50 nM. The reaction mixtures were incubated at 25° C. for 5-15 minutes and subsequently quenched by transferring part of the assay reaction to a solution of 100 mM ethylenediaminetetraacetic acid and 1:100 Picogreen™ (final concentration of […]) in a black plate with an opaque bottom. The fluorescence ([…]) was measured using a Molecular Devices SpectraMax plate reader. Wells containing oligonucleotide but no TREX1 enzyme were used as negative controls. Wells containing oligonucleotide, TREX1 enzyme, and DMSO were used as positive controls.
For the molecule `COc1cc(-c2nc3ccccc3n2C2COC2)c(C)c(O)c1O` [Example 1, 6-methoxy-3-methyl-4-(1-(oxetan-3-yl)-1H-benzo[d]imidazol-2-yl)benzene-1,2-diol], the pIC50 was 4.00 to 5.00.

As to `O=C(O)c1ccc(-c2nc3ccncc3[nH]2)cc1O` [Example 2, 2-hydroxy-4-(3H-imidazo[4,5-c]pyridin-2-yl)benzoic acid], the pIC50 was 4.00 to 5.00.

As to `O=C(O)c1cc(-c2nc3ccccc3n2C2COC2)ccc1O` [Example 3, 2-hydroxy-5-(1-(oxetan-3-yl)-1H-benzo[d]imidazol-2-yl)benzoic acid], the pIC50 was under 4.00.

On to `COc1cc(-c2nc3cc(N4CCC4)ccc3[nH]2)cc(O)c1O` [Example 4, 5-(5-(azetidin-1-yl)-1H-benzo[d]imidazol-2-yl)-3-methoxybenzene-1,2-diol], for which the pIC50 is 5.00 to 6.00. Next, `COc1cc(-c2nc3ccncc3[nH]2)cc(C(=O)O)c1O` [Example 5, 2-hydroxy-5-(3H-imidazo[4,5-c]pyridin-2-yl)-3-methoxybenzoic acid]: 5.00 to 6.00; `COc1cc(-c2nc3cc(N4CCC4)ccc3[nH]2)cc(C(=O)O)c1O` [Example 6, 5-[6-(azetidin-1-yl)-1H-benzimidazol-2-yl]-2-hydroxy-3-methoxybenzoic acid]: 5.00 to 6.00; `COc1cc(-c2nc3ccccc3[nH]2)cc(O)c1O` [Example 9, 5-(1H-benzo[d]imidazol-2-yl)-3-methoxybenzene-1,2-diol]: under 4.00. Next, `COc1cc(-c2nc3ccccc3n2C)cc(O)c1O` [Example 10, 3-methoxy-5-(1-methyl-1H-benzo[d]imidazol-2-yl)benzene-1,2-diol]: under 4.00; `COc1cc(-c2nc3ccccc3n2C2COC2)cc(O)c1O` [Example 11, 3-methoxy-5-(1-(oxetan-3-yl)-1H-benzo[d]imidazol-2-yl)benzene-1,2-diol]: 4.00 to 5.00; `COc1cc(-c2nc3ccncc3[nH]2)cc(O)c1O` [Example 12, 5-(3H-imidazo[4,5-c]pyridin-2-yl)-3-methoxybenzene-1,2-diol]: 4.00 to 5.00. Next, `COc1cc(-c2nc3ccccc3n2C2CCOC2)cc(O)c1O` (stereo not drawn) [Example 13, 3-methoxy-5-(1-(tetrahydrofuran-3-yl)-1H-benzo[d]imidazol-2-yl)benzene-1,2-diol]: 4.00 to 5.00; `COc1cc(-c2nc3cnncc3[nH]2)cc(O)c1O` [Example 14, 5-(1H-imidazo[4,5-d]pyridazin-2-yl)-3-methoxybenzene-1,2-diol]: under 4.00. In the case of `COCCn1c(-c2cc(O)c(O)c(OC)c2)nc2ccccc21` [Example 15, 3-methoxy-5-(1-(2-methoxyethyl)-1H-benzo[d]imidazol-2-yl)benzene-1,2-diol], the pIC50 is under 4.00. In the case of `COc1c(C)c(-c2nc3ccccc3[nH]2)cc(O)c1O` [Example 16, 5-(1H-benzo[d]imidazol-2-yl)-3-methoxy-4-methylbenzene-1,2-diol] it was under 4.00; in that of `COc1cc(-c2nc3ccccc3[nH]2)c(C)c(O)c1O` [Example 17, 4-(1H-benzo[d]imidazol-2-yl)-6-methoxy-3-methylbenzene-1,2-diol], under 4.00; in that of `COc1cc(-c2nc3cc(N4CCNCC4)ccc3[nH]2)cc(O)c1O` [Example 18, 3-methoxy-5-(5-(piperazin-1-yl)-1H-benzo[d]imidazol-2-yl)benzene-1,2-diol], under 4.00.

On to `COc1cc(-c2nc3cc(S(=O)(=O)Nc4ccccc4)ccc3[nH]2)cc(O)c1O` [Example 19, 2-(3,4-dihydroxy-5-methoxyphenyl)-N-phenyl-1H-benzo[d]imidazole-5-sulfonamide], for which the pIC50 was under 4.00.

Turning to `CNS(=O)(=O)c1ccc2[nH]c(-c3cc(O)c(O)c(OC)c3)nc2c1` [Example 20, 2-(3,4-dihydroxy-5-methoxyphenyl)-N-methyl-1H-benzo[d]imidazole-5-sulfonamide], the pIC50 is under 4.00.
